Measured values taken from patent US10039756B2, “Reducing memory loss in mammals suffering from alzheimer's disease” (The Penn State Research Foundation, priority 2013, dated 2018).

Key:
[1] = biological target: T1, GAT-3 (Mus musculus, UniProt P31650); experiment: Tonic GABA current, whole-cell patch clamp in dentate granule cells of hippocampal slices, GAT-3 block; type: cell-based; settings: 50 μM; AD (5xFAD) dentate granule cells
T1 construct: from tissue; host or cells: mouse hippocampal slices (5xFAD and WT littermates), dentate gyrus
T1 sequence (P31650 1-627): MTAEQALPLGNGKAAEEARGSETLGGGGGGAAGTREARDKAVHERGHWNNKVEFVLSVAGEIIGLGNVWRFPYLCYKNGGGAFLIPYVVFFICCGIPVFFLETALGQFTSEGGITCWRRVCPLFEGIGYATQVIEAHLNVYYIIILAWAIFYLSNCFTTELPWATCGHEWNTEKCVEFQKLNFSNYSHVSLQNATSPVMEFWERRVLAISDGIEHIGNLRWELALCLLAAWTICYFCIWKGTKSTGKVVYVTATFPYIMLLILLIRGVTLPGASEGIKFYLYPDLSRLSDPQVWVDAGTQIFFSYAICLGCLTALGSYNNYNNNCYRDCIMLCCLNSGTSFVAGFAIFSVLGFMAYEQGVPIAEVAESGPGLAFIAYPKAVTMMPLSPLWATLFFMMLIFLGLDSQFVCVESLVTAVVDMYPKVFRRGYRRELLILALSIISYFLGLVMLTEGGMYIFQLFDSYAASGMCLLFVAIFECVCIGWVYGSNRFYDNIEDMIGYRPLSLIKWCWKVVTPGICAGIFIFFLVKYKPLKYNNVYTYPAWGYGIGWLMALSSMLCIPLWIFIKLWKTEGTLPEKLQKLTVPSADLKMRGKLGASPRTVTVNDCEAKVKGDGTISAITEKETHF
Description: Mice were anesthetized with 2.5% Avertin. After decapitation, brains were rapidly dissected out and placed in ice-cold cutting solution containing: 79 mM NaCl, 80 mM sucrose, 26 mM NaHCO3, 10 mM glucose, 2.5 mM KCl, 1.25 mM NaH2PO4, 7 mM MgSO4, and 0.5 mM CaCl2 for tonic current recordings. The cutting solution for field EPSP recordings contained: 230 mM sucrose, 26 mM NaHCO3, 20 mM glucose, 2.5 mM KCl, 1.25 mM NaH2PO4, 10 mM MgSO4, and 0.5 mM CaCl2. Both solutions were bubbled with 95% O2/5% CO2. […]
Whole-cell voltage clamp recordings were performed on dentate gyrus granule cells using a pipette solution containing: 135 mM CsCl, 5 mM Na-phosphocreatine, 10 mM HEPES, 5 mM EGTA, 4 mM MgATP, 5 mM QX-314, and 0.5 mM Na2GTP (pH 7.3 adjusted with CsOH, 280-290 mOsm/L). […] Data was acquired using pClamp 9 software (Molecular Devices; sampled at 10 kHz and filtered at 1 kHz), and analyzed with Clampfit 9.0 software (Molecular Devices). Field excitatory postsynaptic potentials (fEPSPs) were recorded with glass electrodes filled with 1 M NaCl and 25 mM HEPES (pH 7.3), and were evoked every 20 seconds with a parallel bipolar tungsten electrode (MicroProbes, USA), which was placed at medial perforant path in the dentate gyrus. […]

[2] = biological target: T2, human GAT-2 polypeptide (Homo sapiens, UniProt Q9NSD5); settings: cited from earlier work
T2 sequence (Q9NSD5 1-602): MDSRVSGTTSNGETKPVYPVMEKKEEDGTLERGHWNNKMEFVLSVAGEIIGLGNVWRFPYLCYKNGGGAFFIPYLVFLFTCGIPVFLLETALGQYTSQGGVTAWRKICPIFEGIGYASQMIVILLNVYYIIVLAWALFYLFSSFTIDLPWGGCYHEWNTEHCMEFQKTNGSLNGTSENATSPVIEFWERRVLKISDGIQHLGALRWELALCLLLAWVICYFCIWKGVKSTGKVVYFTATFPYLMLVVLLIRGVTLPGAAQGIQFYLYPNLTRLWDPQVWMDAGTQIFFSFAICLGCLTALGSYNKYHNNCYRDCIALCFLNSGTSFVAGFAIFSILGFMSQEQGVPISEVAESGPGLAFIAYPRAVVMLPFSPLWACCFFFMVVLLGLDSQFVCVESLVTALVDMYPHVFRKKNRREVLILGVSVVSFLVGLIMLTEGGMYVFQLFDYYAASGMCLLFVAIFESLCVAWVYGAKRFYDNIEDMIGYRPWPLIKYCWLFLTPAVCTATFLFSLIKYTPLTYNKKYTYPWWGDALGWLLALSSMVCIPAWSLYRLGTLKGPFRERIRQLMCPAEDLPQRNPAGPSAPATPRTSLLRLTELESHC

For `COc1ccc(C(OCCN2CCC[C@H](C(=O)O)C2)(c2ccc(OC)cc2)c2ccc(OC)cc2)cc1` [SNAP-5114, (S)-1-[2-[tris(4-methoxyphenyl)methoxy]ethyl]-3-piperidinecarboxylic acid], the “block of tonic GABA current” value [1] is given as “blocked the majority of the tonic GABA current” and the IC50 [2] is given as greater than 15 µM.
